This is an account of results in the kinase profiling compilation of Christmann-Franck et al. (2016).

Sequence of ULK2 (human) (Q8IYT8 whole entry, looked up): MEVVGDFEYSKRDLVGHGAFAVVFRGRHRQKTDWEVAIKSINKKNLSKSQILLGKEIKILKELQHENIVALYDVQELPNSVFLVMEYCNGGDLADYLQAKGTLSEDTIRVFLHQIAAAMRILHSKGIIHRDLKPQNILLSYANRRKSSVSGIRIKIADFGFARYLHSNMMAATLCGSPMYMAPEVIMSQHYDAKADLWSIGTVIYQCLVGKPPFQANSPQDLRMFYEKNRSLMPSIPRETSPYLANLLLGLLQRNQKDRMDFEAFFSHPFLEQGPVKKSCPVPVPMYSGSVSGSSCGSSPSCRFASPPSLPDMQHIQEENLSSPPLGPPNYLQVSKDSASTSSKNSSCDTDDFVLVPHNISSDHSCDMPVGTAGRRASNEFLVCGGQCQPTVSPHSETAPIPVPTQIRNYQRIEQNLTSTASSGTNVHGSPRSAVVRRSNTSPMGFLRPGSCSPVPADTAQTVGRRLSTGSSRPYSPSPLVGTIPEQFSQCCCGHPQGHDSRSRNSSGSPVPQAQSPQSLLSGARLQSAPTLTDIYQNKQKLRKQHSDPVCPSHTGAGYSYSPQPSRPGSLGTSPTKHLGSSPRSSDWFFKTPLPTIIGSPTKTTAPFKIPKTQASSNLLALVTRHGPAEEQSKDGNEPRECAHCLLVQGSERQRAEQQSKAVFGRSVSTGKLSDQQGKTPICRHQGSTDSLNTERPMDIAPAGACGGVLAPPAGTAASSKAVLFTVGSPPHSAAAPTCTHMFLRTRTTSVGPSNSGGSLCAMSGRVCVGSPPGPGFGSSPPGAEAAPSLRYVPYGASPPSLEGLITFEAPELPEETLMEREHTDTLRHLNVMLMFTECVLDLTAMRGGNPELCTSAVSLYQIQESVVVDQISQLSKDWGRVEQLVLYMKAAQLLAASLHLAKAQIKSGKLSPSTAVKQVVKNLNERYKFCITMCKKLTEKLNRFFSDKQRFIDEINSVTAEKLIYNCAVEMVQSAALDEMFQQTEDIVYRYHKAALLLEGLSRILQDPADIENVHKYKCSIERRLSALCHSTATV
Sequence of EPHB2 (human) (P29323 whole entry, looked up): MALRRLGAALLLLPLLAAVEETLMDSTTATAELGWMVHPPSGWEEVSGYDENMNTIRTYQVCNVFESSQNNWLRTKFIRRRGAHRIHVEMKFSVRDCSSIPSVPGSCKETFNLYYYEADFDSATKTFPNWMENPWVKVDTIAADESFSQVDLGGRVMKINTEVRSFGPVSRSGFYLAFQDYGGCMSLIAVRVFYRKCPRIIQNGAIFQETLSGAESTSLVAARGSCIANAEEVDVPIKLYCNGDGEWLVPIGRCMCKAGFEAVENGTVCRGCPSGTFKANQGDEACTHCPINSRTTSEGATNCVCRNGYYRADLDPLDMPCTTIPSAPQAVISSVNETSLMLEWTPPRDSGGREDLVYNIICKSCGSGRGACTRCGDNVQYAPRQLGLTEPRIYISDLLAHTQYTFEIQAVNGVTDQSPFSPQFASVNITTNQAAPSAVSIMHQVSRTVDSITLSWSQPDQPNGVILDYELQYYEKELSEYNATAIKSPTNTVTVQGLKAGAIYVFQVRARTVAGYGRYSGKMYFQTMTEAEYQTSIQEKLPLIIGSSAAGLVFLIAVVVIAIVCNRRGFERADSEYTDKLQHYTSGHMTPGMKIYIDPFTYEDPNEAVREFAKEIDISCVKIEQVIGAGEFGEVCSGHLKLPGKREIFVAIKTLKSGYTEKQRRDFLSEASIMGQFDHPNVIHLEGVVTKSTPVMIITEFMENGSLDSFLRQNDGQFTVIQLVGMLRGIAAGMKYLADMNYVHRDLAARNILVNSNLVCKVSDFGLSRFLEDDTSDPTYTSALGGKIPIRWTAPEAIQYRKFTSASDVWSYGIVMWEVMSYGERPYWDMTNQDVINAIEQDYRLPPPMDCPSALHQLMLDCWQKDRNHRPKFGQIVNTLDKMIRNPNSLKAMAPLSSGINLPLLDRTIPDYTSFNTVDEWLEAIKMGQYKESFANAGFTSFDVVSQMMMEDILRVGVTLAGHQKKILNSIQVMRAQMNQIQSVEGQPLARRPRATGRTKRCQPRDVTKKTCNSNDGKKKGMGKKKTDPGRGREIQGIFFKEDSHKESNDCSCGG
Sequence of PRKX (human) (P51817 whole entry, looked up): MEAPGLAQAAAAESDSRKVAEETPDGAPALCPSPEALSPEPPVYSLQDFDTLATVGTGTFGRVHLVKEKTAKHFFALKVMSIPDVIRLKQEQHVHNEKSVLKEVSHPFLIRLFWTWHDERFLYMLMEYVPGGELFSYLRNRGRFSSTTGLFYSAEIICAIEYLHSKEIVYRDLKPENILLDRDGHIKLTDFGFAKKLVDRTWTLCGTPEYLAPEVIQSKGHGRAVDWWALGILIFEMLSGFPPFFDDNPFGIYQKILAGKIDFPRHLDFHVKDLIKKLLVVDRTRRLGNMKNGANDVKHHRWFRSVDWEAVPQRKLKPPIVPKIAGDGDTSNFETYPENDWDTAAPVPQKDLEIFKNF
Sequence of SGK3 (human) (Q96BR1 whole entry, looked up): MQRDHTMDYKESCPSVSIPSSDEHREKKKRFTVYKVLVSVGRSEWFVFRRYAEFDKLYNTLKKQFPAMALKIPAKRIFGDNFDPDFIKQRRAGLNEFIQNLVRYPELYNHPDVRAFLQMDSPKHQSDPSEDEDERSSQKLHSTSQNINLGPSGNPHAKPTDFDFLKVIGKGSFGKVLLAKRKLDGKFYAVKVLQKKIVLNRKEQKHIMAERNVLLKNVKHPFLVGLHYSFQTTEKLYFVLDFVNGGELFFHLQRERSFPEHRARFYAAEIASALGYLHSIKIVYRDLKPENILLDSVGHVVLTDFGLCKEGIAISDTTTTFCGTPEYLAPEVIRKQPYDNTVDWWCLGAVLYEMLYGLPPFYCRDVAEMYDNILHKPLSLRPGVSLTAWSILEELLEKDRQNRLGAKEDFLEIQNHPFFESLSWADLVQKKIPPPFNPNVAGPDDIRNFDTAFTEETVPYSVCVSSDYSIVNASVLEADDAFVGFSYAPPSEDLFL

The first assay addresses MAPK3 (human) (UniProt P27361). Description: radiometric filter-binding kinase assay, Kinase HotSpot. The settings on record: compound 0.5 µM; ATP 10 µM.
Take `CN(C)C[C@H]1CCn2c(c(C3=C(c4cn(C)c5ccccc45)C(=O)NC3=O)c3ccccc32)C1`: the residual activity – broadly, the signal under treatment as a percentage of the control signal – is 102%.

On to `Cn1nc2c3c(cccc31)C(=O)c1ccccc1-2`, for which the residual activity came out at 98.9%.

In the case of `Nc1nccc(-c2c(-c3ccc(F)cc3)ncn2C2CCNCC2)n1`, the residual activity was determined as 100%.

Another assay deals with RET (human) (UniProt P07949). Described as above. To be noted: compound 0.5 µM; ATP 10 µM.
In the case of `CN(C)C[C@H]1CCn2c(c(C3=C(c4cn(C)c5ccccc45)C(=O)NC3=O)c3ccccc32)C1`, the residual activity turned out to be 99.7%.

On to `Cn1nc2c3c(cccc31)C(=O)c1ccccc1-2`, for which the residual activity came to 83.8%.

As to `Nc1nccc(-c2c(-c3ccc(F)cc3)ncn2C2CCNCC2)n1`, the residual activity came to 89.4%.

A further assay concerns the target SGK3 (human) (UniProt Q96BR1). The assay is described as above. The settings on record: compound 0.5 µM; ATP 10 µM.
For `CN(C)C[C@H]1CCn2c(c(C3=C(c4cn(C)c5ccccc45)C(=O)NC3=O)c3ccccc32)C1`, the residual activity turned out to be 95%.

As for `Cn1nc2c3c(cccc31)C(=O)c1ccccc1-2`, the residual activity came out at 107%.

Turning to `Nc1nccc(-c2c(-c3ccc(F)cc3)ncn2C2CCNCC2)n1`, the residual activity was 97.5%.

A further assay has as its target NTRK3 (human) (UniProt Q16288). The description is as above. The settings on record: compound 0.5 µM; ATP 10 µM.
In the case of `CN(C)C[C@H]1CCn2c(c(C3=C(c4cn(C)c5ccccc45)C(=O)NC3=O)c3ccccc32)C1`, the residual activity was found to be 75%.

With `Cn1nc2c3c(cccc31)C(=O)c1ccccc1-2`, the residual activity came out at 71.6%.

For `Nc1nccc(-c2c(-c3ccc(F)cc3)ncn2C2CCNCC2)n1`, the residual activity is 97.1%.

A further assay deals with AXL (human) (UniProt P30530). The description is as above. The settings on record: compound 0.5 µM; ATP 10 µM.
In the case of `CN(C)C[C@H]1CCn2c(c(C3=C(c4cn(C)c5ccccc45)C(=O)NC3=O)c3ccccc32)C1`, the residual activity stood at 99.3%.

As for `Cn1nc2c3c(cccc31)C(=O)c1ccccc1-2`, the residual activity is 104%.

Regarding `Nc1nccc(-c2c(-c3ccc(F)cc3)ncn2C2CCNCC2)n1`, the residual activity stood at 102%.

Another assay concerns the target PRKX (human) (UniProt P51817). Described as above. The settings on record: compound 0.5 µM; ATP 10 µM.
Consider `CN(C)C[C@H]1CCn2c(c(C3=C(c4cn(C)c5ccccc45)C(=O)NC3=O)c3ccccc32)C1`, for which the residual activity is 97.8%.

`Cn1nc2c3c(cccc31)C(=O)c1ccccc1-2`: the residual activity was determined as 101%.

For the molecule `Nc1nccc(-c2c(-c3ccc(F)cc3)ncn2C2CCNCC2)n1`, the residual activity was 96.8%.

Another assay addresses STK3 (human) (UniProt Q13188). The assay is described as above. To be noted: compound 0.5 µM; ATP 10 µM.
On to `CN(C)C[C@H]1CCn2c(c(C3=C(c4cn(C)c5ccccc45)C(=O)NC3=O)c3ccccc32)C1`, for which the residual activity was found to be 102%.

Take `Cn1nc2c3c(cccc31)C(=O)c1ccccc1-2`: the residual activity came out at 88.4%.

Consider `Nc1nccc(-c2c(-c3ccc(F)cc3)ncn2C2CCNCC2)n1`, for which the residual activity was determined as 103%.

The next assay concerns the target EPHB2 (human) (UniProt P29323). The assay is described as above. The settings on record: compound 0.5 µM; ATP 10 µM.
Turning to `CN(C)C[C@H]1CCn2c(c(C3=C(c4cn(C)c5ccccc45)C(=O)NC3=O)c3ccccc32)C1`, the residual activity stood at 110%.

For `Cn1nc2c3c(cccc31)C(=O)c1ccccc1-2`, the residual activity was determined as 104%.

Turning to `Nc1nccc(-c2c(-c3ccc(F)cc3)ncn2C2CCNCC2)n1`, the residual activity stood at 103%.

Another assay addresses PTK6 (human) (UniProt Q13882). The assay is described as above. To be noted: compound 0.5 µM; ATP 10 µM.
Take `CN(C)C[C@H]1CCn2c(c(C3=C(c4cn(C)c5ccccc45)C(=O)NC3=O)c3ccccc32)C1`: the residual activity was 90.4%.

Turning to `Cn1nc2c3c(cccc31)C(=O)c1ccccc1-2`, the residual activity worked out at 91.8%.

As for `Nc1nccc(-c2c(-c3ccc(F)cc3)ncn2C2CCNCC2)n1`, the residual activity worked out at 73.4%.

A further assay deals with PAK7 (human) (UniProt Q9P286). The description is as above. To be noted: compound 0.5 µM; ATP 10 µM.
Turning to `CN(C)C[C@H]1CCn2c(c(C3=C(c4cn(C)c5ccccc45)C(=O)NC3=O)c3ccccc32)C1`, the residual activity was 100%.

For `Cn1nc2c3c(cccc31)C(=O)c1ccccc1-2`, the residual activity came out at 102%.

Take `Nc1nccc(-c2c(-c3ccc(F)cc3)ncn2C2CCNCC2)n1`: the residual activity came out at 101%.

In the next assay the target is GRK5 (human) (UniProt P34947). The assay is described as above. The settings on record: compound 0.5 µM; ATP 10 µM.
Sequence of GRK5 (human) (P34947 whole entry, looked up): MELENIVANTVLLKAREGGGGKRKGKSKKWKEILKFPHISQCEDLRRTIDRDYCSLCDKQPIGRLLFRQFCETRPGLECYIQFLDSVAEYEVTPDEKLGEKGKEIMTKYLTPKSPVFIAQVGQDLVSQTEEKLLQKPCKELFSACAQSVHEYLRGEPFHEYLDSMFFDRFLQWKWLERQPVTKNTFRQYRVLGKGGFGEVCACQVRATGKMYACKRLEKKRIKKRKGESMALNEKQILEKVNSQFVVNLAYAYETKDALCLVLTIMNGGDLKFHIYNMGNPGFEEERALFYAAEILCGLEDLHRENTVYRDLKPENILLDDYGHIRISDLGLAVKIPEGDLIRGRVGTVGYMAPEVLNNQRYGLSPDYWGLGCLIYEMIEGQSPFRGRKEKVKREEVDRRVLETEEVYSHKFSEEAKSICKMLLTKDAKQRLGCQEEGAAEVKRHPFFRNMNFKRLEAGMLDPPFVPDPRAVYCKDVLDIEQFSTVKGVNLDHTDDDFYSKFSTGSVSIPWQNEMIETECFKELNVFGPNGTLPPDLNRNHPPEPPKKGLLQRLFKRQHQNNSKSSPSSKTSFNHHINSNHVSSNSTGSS
For `CN(C)C[C@H]1CCn2c(c(C3=C(c4cn(C)c5ccccc45)C(=O)NC3=O)c3ccccc32)C1`, the residual activity turned out to be 56.2%.

For the molecule `Cn1nc2c3c(cccc31)C(=O)c1ccccc1-2`, the residual activity turned out to be 93.8%.

With `Nc1nccc(-c2c(-c3ccc(F)cc3)ncn2C2CCNCC2)n1`, the residual activity came to 103%.

The target in the next assay is CDK7 CCNH MNAT1 (human) (UniProt P50613+P51948+P51946). Described as above. The settings on record: compound 0.5 µM; ATP 10 µM.
As to `CN(C)C[C@H]1CCn2c(c(C3=C(c4cn(C)c5ccccc45)C(=O)NC3=O)c3ccccc32)C1`, the residual activity turned out to be 83%.

As for `Cn1nc2c3c(cccc31)C(=O)c1ccccc1-2`, the residual activity was found to be 98.8%.

Consider `Nc1nccc(-c2c(-c3ccc(F)cc3)ncn2C2CCNCC2)n1`, for which the residual activity was found to be 98.9%.

A further assay concerns the target ULK2 (human) (UniProt Q8IYT8). The assay is described as above. The settings on record: compound 0.5 µM; ATP 10 µM.
Consider `CN(C)C[C@H]1CCn2c(c(C3=C(c4cn(C)c5ccccc45)C(=O)NC3=O)c3ccccc32)C1`, for which the residual activity is 105%.

`Cn1nc2c3c(cccc31)C(=O)c1ccccc1-2`: the residual activity was determined as 109%.

As to `Nc1nccc(-c2c(-c3ccc(F)cc3)ncn2C2CCNCC2)n1`, the residual activity amounted to 113%.

In a further assay the target is ROCK1 (human) (UniProt Q13464). The assay is described as above. To be noted: compound 0.5 µM; ATP 10 µM.
With `CN(C)C[C@H]1CCn2c(c(C3=C(c4cn(C)c5ccccc45)C(=O)NC3=O)c3ccccc32)C1`, the residual activity came to 106%.

Turning to `Cn1nc2c3c(cccc31)C(=O)c1ccccc1-2`, the residual activity came to 98.4%.

As to `Nc1nccc(-c2c(-c3ccc(F)cc3)ncn2C2CCNCC2)n1`, the residual activity was determined as 103%.

For the next assay, the target named is TXK (human) (UniProt P42681). Described as above. To be noted: compound 0.5 µM; ATP 10 µM.
As for `CN(C)C[C@H]1CCn2c(c(C3=C(c4cn(C)c5ccccc45)C(=O)NC3=O)c3ccccc32)C1`, the residual activity turned out to be 103%.

`Cn1nc2c3c(cccc31)C(=O)c1ccccc1-2`: the residual activity stood at 92%.

With `Nc1nccc(-c2c(-c3ccc(F)cc3)ncn2C2CCNCC2)n1`, the residual activity came out at 99.1%.

Another assay addresses NEK4 (human) (UniProt P51957). The assay is described as above. To be noted: compound 0.5 µM; ATP 10 µM.
On to `CN(C)C[C@H]1CCn2c(c(C3=C(c4cn(C)c5ccccc45)C(=O)NC3=O)c3ccccc32)C1`, for which the residual activity was found to be 96.7%.

On to `Cn1nc2c3c(cccc31)C(=O)c1ccccc1-2`, for which the residual activity is 89.8%.

Take `Nc1nccc(-c2c(-c3ccc(F)cc3)ncn2C2CCNCC2)n1`: the residual activity worked out at 99.5%.

The target in a further assay is FGFR4 (human) (UniProt P22455). Described as above. To be noted: compound 0.5 µM; ATP 10 µM.
In the case of `CN(C)C[C@H]1CCn2c(c(C3=C(c4cn(C)c5ccccc45)C(=O)NC3=O)c3ccccc32)C1`, the residual activity is 89.6%.

Take `Cn1nc2c3c(cccc31)C(=O)c1ccccc1-2`: the residual activity was determined as 108%.

`Nc1nccc(-c2c(-c3ccc(F)cc3)ncn2C2CCNCC2)n1`: the residual activity turned out to be 85.7%.

In the next assay the target is NUAK1 (human) (UniProt O60285). The description is as above. The settings on record: compound 0.5 µM; ATP 10 µM.
With `CN(C)C[C@H]1CCn2c(c(C3=C(c4cn(C)c5ccccc45)C(=O)NC3=O)c3ccccc32)C1`, the residual activity is 90.9%.

Regarding `Cn1nc2c3c(cccc31)C(=O)c1ccccc1-2`, the residual activity amounted to 46.2%.

On to `Nc1nccc(-c2c(-c3ccc(F)cc3)ncn2C2CCNCC2)n1`, for which the residual activity was determined as 98.4%.

In the next assay the target is NEK11 (human) (UniProt Q8NG66). The description is as above. The settings on record: compound 0.5 µM; ATP 10 µM.
Sequence of NEK11 (human) (Q8NG66 whole entry, looked up): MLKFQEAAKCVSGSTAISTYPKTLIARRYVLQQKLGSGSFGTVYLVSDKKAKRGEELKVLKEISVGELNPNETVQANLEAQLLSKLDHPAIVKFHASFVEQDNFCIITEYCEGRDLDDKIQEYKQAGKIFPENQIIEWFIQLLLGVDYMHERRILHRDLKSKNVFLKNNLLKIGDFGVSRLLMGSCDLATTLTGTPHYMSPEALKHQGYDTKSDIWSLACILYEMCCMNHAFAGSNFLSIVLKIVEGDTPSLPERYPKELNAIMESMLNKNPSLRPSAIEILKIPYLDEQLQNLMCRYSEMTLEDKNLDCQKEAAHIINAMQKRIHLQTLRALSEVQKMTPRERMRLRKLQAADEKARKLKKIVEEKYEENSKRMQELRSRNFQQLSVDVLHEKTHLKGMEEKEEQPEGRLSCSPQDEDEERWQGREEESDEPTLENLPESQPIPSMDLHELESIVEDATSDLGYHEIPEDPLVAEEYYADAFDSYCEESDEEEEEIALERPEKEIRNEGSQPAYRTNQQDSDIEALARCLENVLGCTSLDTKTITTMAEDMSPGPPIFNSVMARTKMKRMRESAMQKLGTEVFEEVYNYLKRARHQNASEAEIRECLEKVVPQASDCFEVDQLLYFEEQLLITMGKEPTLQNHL
In the case of `CN(C)C[C@H]1CCn2c(c(C3=C(c4cn(C)c5ccccc45)C(=O)NC3=O)c3ccccc32)C1`, the residual activity is 74.1%.

In the case of `Cn1nc2c3c(cccc31)C(=O)c1ccccc1-2`, the residual activity was 105%.

On to `Nc1nccc(-c2c(-c3ccc(F)cc3)ncn2C2CCNCC2)n1`, for which the residual activity turned out to be 105%.

A further assay addresses CSK (human) (UniProt P41240). Described as above. To be noted: compound 0.5 µM; ATP 10 µM.
`CN(C)C[C@H]1CCn2c(c(C3=C(c4cn(C)c5ccccc45)C(=O)NC3=O)c3ccccc32)C1`: the residual activity turned out to be 104%.

In the case of `Cn1nc2c3c(cccc31)C(=O)c1ccccc1-2`, the residual activity amounted to 88.7%.

Regarding `Nc1nccc(-c2c(-c3ccc(F)cc3)ncn2C2CCNCC2)n1`, the residual activity worked out at 90.8%.

The target in the next assay is LCK (human) (UniProt P06239). Described as above. The settings on record: compound 0.5 µM; ATP 10 µM.
Sequence of LCK (human) (P06239 whole entry, looked up): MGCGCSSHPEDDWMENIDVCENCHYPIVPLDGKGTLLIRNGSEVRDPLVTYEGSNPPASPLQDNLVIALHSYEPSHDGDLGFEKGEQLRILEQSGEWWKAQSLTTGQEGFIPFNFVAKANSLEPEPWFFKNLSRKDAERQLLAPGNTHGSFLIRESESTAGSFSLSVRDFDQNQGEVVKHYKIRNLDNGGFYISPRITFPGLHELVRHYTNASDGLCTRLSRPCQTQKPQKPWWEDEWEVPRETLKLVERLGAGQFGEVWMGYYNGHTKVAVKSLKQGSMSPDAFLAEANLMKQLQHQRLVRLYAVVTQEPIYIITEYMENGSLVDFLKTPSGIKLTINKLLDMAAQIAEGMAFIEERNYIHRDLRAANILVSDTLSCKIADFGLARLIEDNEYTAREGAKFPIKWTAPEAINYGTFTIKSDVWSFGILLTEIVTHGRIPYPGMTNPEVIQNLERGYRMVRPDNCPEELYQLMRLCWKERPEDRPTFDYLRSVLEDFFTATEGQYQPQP
As for `CN(C)C[C@H]1CCn2c(c(C3=C(c4cn(C)c5ccccc45)C(=O)NC3=O)c3ccccc32)C1`, the residual activity was found to be 96.5%.

Turning to `Cn1nc2c3c(cccc31)C(=O)c1ccccc1-2`, the residual activity turned out to be 99.2%.

For `Nc1nccc(-c2c(-c3ccc(F)cc3)ncn2C2CCNCC2)n1`, the residual activity amounted to 80.1%.
